From patent US20120178147A1, “MICROBIAL CULTURES AND METHODS FOR ANAEROBIC BIOREMEDIATION” (priority 2009, published 2012)

Legend:
[1] = test system: general bacteria; experiment: qRT-PCR of general bacteria 16S rRNA genes in DehaloR̂2 cultures; format: cell-based; conditions: for General bacteria 16S rRNA gene copies, day 22 / General bacteria 16S rRNA gene copies, initial: DehaloR̂2 with 1.5 μM TCC or 35 μM TCS
Procedure: (§1) Quantitative real-time PCR (qRT-PCR) was performed for enumeration of general 16S rRNA genes and Dehalococcoides 16S rRNA genes in culture DehaloR̂2 and Bio-Dechlor INOCULUM. The primers used for general 16S rRNA genes were Bac1055F (5′-ATG GYT GTC GTC ACCT-3′) and Bac1392R (5′-ACG GGC GGT GTG TAC-3′) (Ritalahti et al., 2006), and the probe was Bac16sTaq (FAM-CAA CGA GCG CAA CCC/3-BHQ-1/). The final volume of PCR reactions was 10 μL, and the final concentration of each chemical in a single reaction tube was: 1× RealMasterMix (Fisher Scientific, Pittsburgh, Pa.), 300 nM Probe, 300 nM each Primer, and 130 nM DNA samples. The PCR conditions were as follows: 2 min at 95° C. followed by 40 cycles of 10 s at 95° C., 20 s at 56° C. and 20 s at 68° C. The primers used for Dehalococcoides 16S rRNA genes were Dhc1200F (5′-CTGGAGCTAATCCCCAAAGCT-3′) and Dhc1271R (5′-CAA CTT CAT GCA GGC GGG-3′), and the probe was Dhc1240Pr (FAM-TCCTCAGTTCGGATTGCAGGC TGAA/3-BHQ-1) (He et al., 2003b). The final volume of PCR reactions was 10 μL, and the final concentration of each chemical in a single reaction tube was: 1× RealMasterMix (Fisher Scientific, Pittsburgh, Pa.), 200 nM Probe, 700 nM each Primer, and 130 nM DNA samples. The PCR conditions were as follows: 2 min at 95° C. followed by 40 cycles of 15 s at 95° C., 20 s at 58° C. and 20 s at 68° C.
(§2) Quantitative Real time PCR (qRT-PCR) was carried out in a spectrofluorimetric thermal cycler (Master cycler, epgradient S, Eppendorf). Calibration curves were performed in triplicate and a linear range of 6 orders of magnitude was obtained. Plasmids containing Dehalococcoides strain BAV1 16S rRNA genes were used as standards to construct general 16S rRNA genes and Dehalococcoides 16S rRNA genes calibration curves. The slopes of the calibration curves for general 16S rRNA genes and Dehalococcoides 16S rRNA genes were −3.46 and −3.94, and the Y intercepts were 38 and 44.2, respectively.
(§3) DNA Extraction and Quantitative Real-Time PCR. The BDI cultures and DehaloR^2 cultures were shaken vigorously first and then 10 ml of the mixed liquid was removed with a sterile syringe and dispensed into 10 1.5 ml micro centrifuge tubes. These micro centrifuge tubes were then centrifuged at 13,000 rpm for 15 min in order to make a pellet, and the pellet was used for DNA extraction. Qiagen DNeasy Blood & Tissue Kit with modifications to enhance lysis was used for DNA isolation from cultures. DNA samples were stored at −20° C.
(§4) Quantitative real-time PCR (qRT-PCR) was performed for enumeration of general 16S rRNA genes and Dehalococcoides 16S rRNA genes in BDI culture without TCC&TCS, BDI culture with 1.5 μM TCC, BDI culture with 35 μM TCS, D DehaloR̂2 culture without TCC&TCS, DehaloR^2 culture with 1.5 μM TCC and DehaloR̂2^2 culture with 35 μM TCS.
The primers used for general 16S rRNA genes were Bac1055F (5′-ATGGYTGTCGTCAGCT-3′) and Bac1392R (5′-ACGGGCGGTGTGTAC-3′) (Ritalahti et al., 2006), and the probe was Bac16sTaq (FAM-CAACGAGCGCAACCC/3-BHQ-1/). The final volume of PCR reactions was 10 μL, and the final concentration of each chemical in a single reaction tube was: 1× RealMasterMix (Fisher Scientific, Pittsburgh, Pa.), 300 nM Probe, 300 nM each Primer, and 130 nM DNA samples. The PCR conditions were as follows: 2 min at 95° C. followed by 40 cycles of 10 s at 95° C., 20 s at 56° C. and 20 s at 68° C.
The qRT-PCR was carried out in a spectrofluorimetric thermal cycler (Master cycler, epgradient S, Eppendorf). […]

[2] = test system: Dehalococcoides; experiment: qRT-PCR of Dehalococcoides 16S rRNA genes in BDI cultures; format: cell-based; conditions: for effect on growth of Dehalococcoides in BDI cultures: 1.5 μM TCC or 35 μM TCS; for Dehalococcoides 16S rRNA gene copies, day 27 / Dehalococcoides 16S rRNA gene copies, initial: BDI with 1.5 μM TCC or 35 μM TCS
Procedure: as §1, §2, §3, §4
The primers used for Dehalococcoides 16S rRNA genes were Dhc1200F (5′-[…]-3′) and Dhc1271R (5′-CAACTTCATGCAGGCGGG-3′), and the probe was Dhc1240Pr (FAM-[…]/3-BHQ-1) (He et al., 2003b). The final volume of PCR reactions was 10 μL, and the final concentration of each chemical in a single reaction tube was: 1× RealMasterMix (Fisher Scientific, Pittsburgh, Pa.), 200 nM Probe, 700 nM each Primer, and 130 nM DNA samples. The PCR conditions were as follows: 2 min at 95° C. followed by 40 cycles of 15 s at 95° C., 20 s at 58° C. and 20 s at 68° C.
as §2, with “The qRT-PCR” for “Quantitative Real time PCR (qRT-PCR)”

Compound	General bacteria 16S rRNA gene copies, day 22 [1]	General bacteria 16S rRNA gene copies, initial [1]	effect on growth of Dehalococcoides in BDI cultures [2]	Dehalococcoides 16S rRNA gene copies, day 27 [2]	Dehalococcoides 16S rRNA gene copies, initial [2]	General bacteria 16S rRNA gene copies, day 22 relative to initial ([1]; DehaloR̂2 with 35 μM TCS)
O=C(Nc1ccc(Cl)cc1)Nc1ccc(Cl)c(Cl)c1 [TCC, 3-(4-chlorophenyl)-1-(3,4-dichlorphenyl) urea]	1.6×10^8 gene copies/ml	1.3×10^7 gene copies/ml	significantly inhibited the growth of Dehalococcoides	1.9×10^7 gene copies/ml	6.1×10^7 gene copies/ml	–
Oc1cc(Cl)ccc1Oc1ccc(Cl)cc1Cl [TCS, 5-chloro-2-[2,4-dichloro-phenoxy]-phenol]	7.5×10^7 gene copies/ml	2.2×10^7 gene copies/ml	significantly inhibited the growth of Dehalococcoides	9.4×10^6 gene copies/ml	8.9×10^7 gene copies/ml	3.5 times
